Test results: ChEMBL document CHEMBL1159153, “Synthesis and biological activity of 3,4,5-trihydroxy etoposide” (Bioorg Med Chem Lett, 1993)
Values after ≈ are worked out from the molar mass of the structure shown.

Columns and labels:
[1] = test system: Mus musculus; experiment: Long time survivors of mice alive/total on day 30 after administration of the compound; 1 survived out of 4 mice.; type: functional
[2] = test system: Mus musculus; experiment: Long-time survivors of mice alive/total on day 30 after administration (60 mg/kg per injection) intraperitoneally on days 1 and 5; type: functional
[3] = test system: Mus musculus; experiment: Long time survivors of mice alive/total on day 30 after administration of the compound; 3 survived out of 4 mice.; type: functional
[4] = test system: Mus musculus; experiment: Tested for percent median survival time of drug-treated mice compared to saline -treated control at a dose of 120 mg/kg intraperitoneally; type: functional; settings: route intraperitoneal
[5] = test system: Mus musculus; experiment: Long time survivors of mice alive/total on day 30 after administration (60 mg/kg per injection) intraperitoneally on days 1 and 5; 2 survived out of 4 mice.; type: functional
[6] = test system: Mus musculus; experiment: Tested for percent median survival time of drug-treated mice compared to saline -treated control at a dose of 40 mg/kg intraperitoneally; type: functional; settings: route intraperitoneal
[7] = test system: Mus musculus; experiment: Tested for percent median survival time of drug-treated mice compared to saline -treated control at a dose of 80 mg/kg intraperitoneally; type: functional; settings: route intraperitoneal
[8] = test system: HCT cell line; experiment: Compound was evaluated for in vitro cytotoxicity against HCT/VP35 cells; type: functional, cell-based; settings: Homo sapiens
[9] = Ratio of inhibition of HCT116 to that of inhibition of HCT/VP 35 cells; type: functional, HCT-116
[10] = test system: HCT-116; experiment: Tested for in vitro cytotoxicity against HCT116 cells; type: functional, cell-based; settings: Homo sapiens
[11] = test system: Mus musculus; experiment: Long-time survivors of mice alive/total on day 30 after administration (100 mg/kg) intraperitoneally on days 5 and 8 (experiment 1); type: functional
[12] = test system: Mus musculus; experiment: Tested for percent median survival time of drug-treated mice compared to saline -treated control at a dose of 150 mg/kg intraperitoneally; type: functional; settings: route intraperitoneal
[13] = test system: Mus musculus; experiment: Tested for percent median survival time of drug-treated mice compared to saline -treated control at a dose of 38 mg/kg intraperitoneally; type: functional; settings: route intraperitoneal
[14] = test system: Mus musculus; experiment: Tested for percent median survival time of drug-treated mice compared to saline -treated control at a dose of 75 mg/kg intraperitoneally; type: functional; settings: route intraperitoneal
[15] = test system: Mus musculus; experiment: Tested for percent median survival time of drug-treated mice compared to saline -treated control at a dose of 25 mg/kg intraperitoneally; type: functional; settings: route intraperitoneal
[16] = test system: Mus musculus; experiment: Long time survivors of mice alive/total on day 30 after administration (60 mg/kg per injection) intraperitoneally on days 1 and 5; 4 survived out of 4 mice; type: functional
[17] = test system: Mus musculus; experiment: Tested for percent median survival time of drug-treated mice compared to saline -treated control at a dose of 100 mg/kg intraperitoneally; type: functional; settings: route intraperitoneal
[18] = test system: Mus musculus; experiment: Tested for percent median survival time of drug-treated mice compared to saline -treated control at a dose of 50 mg/kg intraperitoneally; type: functional; settings: route intraperitoneal

## COC1=CC([C@@H]2c3cc4c(cc3[C@@H](O[C@@H]3O[C@@H]5CO[C@@H](C)O[C@H]5[C@H](O)[C@H]3O)[C@H]3COC(=O)[C@@H]32)OCO4)=CC(=O)C1=O
[1]
  LTS: >1
[2]
  Max T/C: > 595%
[3]
  LTS: 3
[4]
  T/C: 447
[5]
  LTS: 2
[6]
  T/C: 274
[7]
  T/C: >621

## COc1cc([C@@H]2c3cc4c(cc3[C@@H](O[C@@H]3O[C@@H]5CO[C@@H](C)O[C@H]5[C@H](O)[C@H]3O)[C@H]3COC(=O)[C@H]23)OCO4)cc(OC)c1O [ETOPOSIDE]
[8]
  IC50: 5.2 µg/mL (≈ 8.84 µM)
[9]
  Ratio: 15
[10]
  IC50: 0.35 µg/mL (≈ 0.595 µM)

## C[C@@H]1OC[C@H]2O[C@@H](O[C@@H]3c4cc5c(cc4[C@@H](c4cc(O)c(O)c(O)c4)[C@H]4C(=O)OC[C@@H]43)OCO5)[C@H](O)[C@@H](O)[C@@H]2O1
[8]
  IC50: 68.9 µg/mL (≈ 123 µM)
[11]
  Max T/C: 230%
[12]
  T/C: 150
[13]
  T/C: 100
[14]
  T/C: 130
[9]
  Ratio: 0.87
[10]
  IC50: 79 µg/mL (≈ 141 µM)

## COc1cc([C@@H]2c3cc4c(cc3[C@@H](O[C@@H]3O[C@@H]5CO[C@@H](C)O[C@H]5[C@H](O)[C@H]3O)[C@H]3COC(=O)[C@H]23)OCO4)cc(O)c1O
[15]
  T/C: 250
[1]
  LTS: 1
[2]
  Max T/C: > 563%
[3]
  LTS: 2
[16]
  LTS: 4
[17]
  T/C: 344
[18]
  T/C: >413
[10]
  IC50: 35 µg/mL (≈ 60.9 µM)
